Assay results published in article PMC10584170, “Machine learning-based phenotypic imaging to characterise the targetable biology of Plasmodium falciparum male gametocytes for the development of transmission-blocking antimalarials” (PLOS Pathogens, 2023).
Like-named read-outs stand apart in the source and are kept apart here.

How the values were obtained:
[1] = system: P. falciparum male gametocytes; assay: P. falciparum Dual Gamete Formation Assay (PfDGFA), male readout (exflagellation); format: cell-based, Plasmodium falciparum NF54; details: for Selectivity Ratio M: HepG2 Tox50 versus male IC50; for IC50: PfDGFA, 24 h incubation with gametocytes before induction, exflagellation readout, read-out: Male IC50; for HitlevelM: number of replicates with >50% inhibition in the male readout
Procedure, shortened: (§1)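 First, day-14 P. falciparum NF54 gametocytes receive compound for 24 h at 37°C in 1% O2/3% CO2. Next, ookinete medium with Cy3 anti-Pfs25 triggers gametogenesis at 28°C and male exflagellation is imaged. Finally, after 24 h in the dark, Cy3-labelled females are imaged.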

[2] = system: P. falciparum female gametocytes; assay: P. falciparum Dual Gamete Formation Assay (PfDGFA), female readout (Pfs25-positive female gametes); format: cell-based, Plasmodium falciparum NF54; details: for Selectivity ratio F: HepG2 Tox50 versus female IC50; for IC50: PfDGFA, 24 h incubation with gametocytes before induction, female gamete readout, read-out: Female IC50; for HitlevelF: number of replicates with >50% inhibition in the female readout
Procedure, shortened: as §1

HepG2 cells = assay: HepG2 cytotoxicity counter-screen; details: cytotoxic activity against HepG2 cells
[3] = Plasmodium falciparum, PfDGFA at 2µM, 24h preincubation with gametocytes, average of replicates, read-out: Average inhibition male (%)
[4] = Plasmodium falciparum, PfDGFA at 2µM, 24h preincubation with gametocytes, replicate R1, read-out: % inhibition male (individual replicates) R1
[5] = Plasmodium falciparum, PfDGFA at 2µM, 24h preincubation with gametocytes, replicate R2, read-out: % inhibition male (individual replicates) R2
[6] = Plasmodium falciparum, PfDGFA at 2µM, 24h preincubation with gametocytes, replicate R3, read-out: % inhibition male (individual replicates) R3
[7] = Plasmodium falciparum, PfDGFA at 2µM, 24h preincubation with gametocytes, replicate R4, read-out: % inhibition male (individual replicates) R4
[8] = Plasmodium falciparum, PfDGFA at 2µM, 24h preincubation with gametocytes, average of replicates, read-out: Average inhibition female (%)
[9] = Plasmodium falciparum, PfDGFA at 2µM, 24h preincubation with gametocytes, replicate R1, read-out: % inhibition female (individual replicates) R1
[10] = Plasmodium falciparum, PfDGFA at 2µM, 24h preincubation with gametocytes, replicate R2, read-out: % inhibition female (individual replicates) R2
[11] = Plasmodium falciparum, PfDGFA at 2µM, 24h preincubation with gametocytes, replicate R3, read-out: % inhibition female (individual replicates) R3
[12] = Plasmodium falciparum, PfDGFA at 2µM, 24h preincubation with gametocytes, replicate R4, read-out: % inhibition female (individual replicates) R4
[13] = Plasmodium falciparum, 2µM, 24h preincubation with gametocytes, average of replicates, read-out: Average inhibition male (%)
[14] = Plasmodium falciparum, 2µM, 24h preincubation with gametocytes, replicate R1, read-out: % inhibition male (individual replicates) R1
[15] = Plasmodium falciparum, 2µM, 24h preincubation with gametocytes, replicate R2, read-out: % inhibition male (individual replicates) R2
[16] = Plasmodium falciparum, 2µM, 24h preincubation with gametocytes, replicate R3, read-out: % inhibition male (individual replicates) R3
[17] = Plasmodium falciparum, 2µM, 24h preincubation with gametocytes, replicate R4, read-out: % inhibition male (individual replicates) R4
[18] = Plasmodium falciparum, 2µM, 24h preincubation with gametocytes, average of replicates, read-out: Average inhibition female (%)
[19] = Plasmodium falciparum, 2µM, 24h preincubation with gametocytes, replicate R1, read-out: % inhibition female (individual replicates) R1
[20] = Plasmodium falciparum, 2µM, 24h preincubation with gametocytes, replicate R2, read-out: % inhibition female (individual replicates) R2
[21] = Plasmodium falciparum, 2µM, 24h preincubation with gametocytes, replicate R3, read-out: % inhibition female (individual replicates) R3
[22] = Plasmodium falciparum, 2µM, 24h preincubation with gametocytes, replicate R4, read-out: % inhibition female (individual replicates) R4
[23] = PfDGFA at 2µM, 24h preincubation with gametocytes, average of replicates
[24] = PfDGFA at 2µM, 24h preincubation with gametocytes, replicate R1
[25] = PfDGFA at 2µM, 24h preincubation with gametocytes, replicate R3
[26] = PfDGFA at 2µM, 24h preincubation with gametocytes, replicate R4

Row | IC50 ([1]; Plasmodium falciparum) [nM] | IC50 ([2]; Plasmodium falciparum) [nM] | SMILES | Selectivity Ratio M [1] | inhibition at 2 µM [1, 3] [%] | inhibition at 2 µM [1, 4] [%] | inhibition at 2 µM [1, 5] [%] | inhibition at 2 µM [1, 6] [%] | inhibition at 2 µM [1, 7] [%] | HitlevelM ([1]; 2µM) | Selectivity ratio F [2] | inhibition at 2 µM [2, 8] [%] | inhibition at 2 µM [2, 9] [%] | inhibition at 2 µM [2, 10] [%] | inhibition at 2 µM [2, 11] [%] | inhibition at 2 µM [2, 12] [%] | HitlevelF ([2]; 2µM) | Tox50 (HepG2 cells) [µM] | inhibition at 2 µM [1, 13] [%] | inhibition at 2 µM [1, 14] [%] | inhibition at 2 µM [1, 15] [%] | further results
1 | 910 | 5140 | COc1ccc(C[C@H](N)C(=O)N[C@H]2[C@@H](O)[C@H](n3cnc4c(N(C)C)ncnc43)O[C@@H]2CO)cc1 [TCMDC-123493] | 3.72 | 76.8 | 75.8 | 91.9 | 54 | 85.6 | 4 | 0.66 | 37.8 | 41.5 | 55 | 20.7 | 33.9 | 1 | 3.39 | – | – | – | –
2 | 510 | 1470 | CN(C)CCCn1c(N)c(-c2nc3ccccc3[nH]2)c2nc(C#N)c(C#N)nc21 [TCMDC-123729] | 16 | – | – | – | – | – | – | 5.55 | – | – | – | – | – | – | 8.13 | 100 | 96.8 | 102 | inhibition at 2 µM [1, 16]: 97.3%; inhibition at 2 µM [1, 17]: 104%; inhibition at 2 µM [2, 18]: 94.8%; inhibition at 2 µM [2, 19]: 95.1%; inhibition at 2 µM [2, 20]: 89.6%; inhibition at 2 µM [2, 21]: 99.5%; inhibition at 2 µM [2, 22]: 95.1%
3 | 910 | 4890 | C=CCNc1cc(-c2ccccn2)nc(-c2ccccn2)n1 [TCMDC-123787] | 13.76 | – | – | – | – | – | – | 2.57 | – | – | – | – | – | – | 12.58 | 94.8 | 93.1 | 94.1 | inhibition at 2 µM [1, 16]: 97.8%; inhibition at 2 µM [1, 17]: 94.1%; inhibition at 2 µM [2, 18]: 33.1%; inhibition at 2 µM [2, 19]: 29.8%; inhibition at 2 µM [2, 20]: 30%; inhibition at 2 µM [2, 21]: 14.9%; inhibition at 2 µM [2, 22]: 57.6%
4 | 590 | 8840 | CN1CCN(c2ccc(Nc3c4ccccc4nc4ccccc34)cc2)CC1 [TCMDC-123912] | 45.1 | – | – | – | – | – | – | 3.01 | – | – | – | – | – | – | 26.65 | – | – | – | HitlevelM ([1]; 2µM, 24h preincubation): 3; inhibition at 2 µM ([1]; Plasmodium falciparum, 2µM, 24h preincubation with gametocytes prior to induction of gametogenesis, average of replicates, read-out: Average inhibition male (%)): 62.8%; inhibition at 2 µM ([1]; Plasmodium falciparum, 2µM, 24h preincubation with gametocytes prior to induction of gametogenesis, replicate R1, read-out: % inhibition male (individual replicates) R1): 83%; inhibition at 2 µM ([1]; Plasmodium falciparum, 2µM, 24h preincubation with gametocytes prior to induction of gametogenesis, replicate R2, read-out: % inhibition male (individual replicates) R2): 83.6%; inhibition at 2 µM ([1]; Plasmodium falciparum, 2µM, 24h preincubation with gametocytes prior to induction of gametogenesis, replicate R3, read-out: % inhibition male (individual replicates) R3): 12.9%; inhibition at 2 µM ([1]; Plasmodium falciparum, 2µM, 24h preincubation with gametocytes prior to induction of gametogenesis, replicate R4, read-out: % inhibition male (individual replicates) R4): 71.6%; HitlevelF ([2]; 2µM, 24h preincubation): 0; inhibition at 2 µM ([2]; Plasmodium falciparum, 2µM, 24h preincubation with gametocytes prior to induction of gametogenesis, average of replicates, read-out: Average inhibition female (%)): 9.1%; inhibition at 2 µM ([2]; Plasmodium falciparum, 2µM, 24h preincubation with gametocytes prior to induction of gametogenesis, replicate R1, read-out: % inhibition female (individual replicates) R1): 23.8%; inhibition at 2 µM ([2]; Plasmodium falciparum, 2µM, 24h preincubation with gametocytes prior to induction of gametogenesis, replicate R2, read-out: % inhibition female (individual replicates) R2): 8%; inhibition at 2 µM ([2]; Plasmodium falciparum, 2µM, 24h preincubation with gametocytes prior to induction of gametogenesis, replicate R3, read-out: % inhibition female (individual replicates) R3): 0.7%; inhibition at 2 µM ([2]; Plasmodium falciparum, 2µM, 24h preincubation with gametocytes prior to induction of gametogenesis, replicate R4, read-out: % inhibition female (individual replicates) R4): 4.1%
5 | – | – | COc1ccc(C[C@H](N)C(=O)N[C@H]2[C@@H](O)[C@H](n3cnc4c(N(C)C)ncnc43)O[C@@H]2CO)cc1.Cl [TCMDC-123927] | 4.87 | – | – | – | – | – | 4 | 0.5 | – | – | – | – | – | 1 | 2.01 | – | – | – | Average inhibition male (%) [1, 23]: 79.6%; % inhibition male (individual replicates) R1 [1, 24]: 87.8%; % inhibition male (individual replicates) R3 [1, 25]: 64.7%; % inhibition male (individual replicates) R4 [1, 26]: 82.2%; IC50 [1]: 410 nM; Average inhibition female (%) [2, 23]: 38.8%; % inhibition female (individual replicates) R1 [2, 24]: 27.9%; % inhibition female (individual replicates) R3 [2, 25]: 10.7%; % inhibition female (individual replicates) R4 [2, 26]: 72.0%; IC50 [2]: 4000 nM
6 | 980 | 740 | CCc1cc2c(Sc3nnc(N)s3)ncnc2s1 [TCMDC-123993] | 62.08 | 88.1 | 91.2 | 88.6 | 87.9 | 84.9 | 4 | 82.32 | 62.7 | 49.4 | 83 | 66.2 | 52.3 | 3 | 61 | – | – | – | –
